Results taken from patent US20250186554A1, “FORMULATIONS COMPRISING ACID-NEUTRALIZING POLYMER FOR ORAL ADMINISTRATION OF GLUCAGON-LIKE PEPTIDE-1 AND ANALOGS THEREOF” (Entera Bio Ltd., priority 2022, published 2025).

Key:
[1] = pH upon addition of test substance to 0.1 M HCl solution (pH 1.2), pH meter; assay type: physicochemical
Protocol: Test substances were dissolved in various volumes of 0.1 M HCl solution (pH 1.2) at concentrations of 1, 2, 4, 10, 20, 50, 100 and 150 mg/ml. The solution pH was determined using an MP-103 pH-meter (MRC, Israel) equipped with ELC-10-00 electrode (MRC, Israel) or with a thin electrode HI1083 (HANNA instruments Inc.), shortly after dissolution and up to 26 hours later in order to ensure that the pH remained stable. The highest pH value obtained during the experimental time period was recorded in order to compare the acid-neutralizing capacity of each substance.
SNAC and the basic polymers sodium alginate, sodium carboxymethylcellulose in non-crosslinked (Na-CMC) and crosslinked (croscarmellose sodium, CCS) forms, and sodium starch glycolate (SSG) were dissolved in various volumes of 0.1 M HCl solution (pH 1.2) at concentrations of 1, 2, 4, 10, 20, 50, 100 and 150 mg/ml, and the solution pH was determined using an MP-103 pH-meter (MRC, Israel) equipped with ELC-10-00 electrode (MRC, Israel), as described in the Materials and Methods section hereinabove.
In order to obtain a beneficial rise in pH with a reduced loss of the active form of the absorption enhancer, the effect of various concentrations of different polymers containing carboxylate groups (sodium alginate, sodium starch glycolate, sodium carboxymethylcellulose, and croscarmellose sodium) on pH upon addition to a 0.1 M HCl solution (pH 1.2) was also evaluated. FIG. 2A presents pH values determined using an MP-103 pH-meter (MRC, Israel) equipped with ELC-10-00 electrode (MRC, Israel) and FIG. 2B presents pH values determined using an MP-103 pH-meter (MRC, Israel) equipped with a thin electrode HI1083 (HANNA instruments Inc.).

[2] = in vivo; cited from earlier work

Row | Compound | pH 5 minutes after dissolution ([1]; 10 mg/ml SNAC added to HCl solution (pH 1.2)) | pH 5 minutes after dissolution ([1]; 20 mg/ml SNAC added to HCl solution (pH 1.2)) | pH 5 minutes after dissolution ([1]; 100 mg/ml SNAC added to HCl solution (pH 1.2)) | half-life [2]
1 | O=C(O)CCCCCCCNC(=O)c1ccccc1O [SNAC, sodium 8-N-(2-hydroxybenzoyl)aminocaprylate] | about 1.5 | 6.5 | about 7.5 | –
2 | Semaglutide: fatty acid derivative of a GLP-1 homolog | – | – | – | about 7 days
